According to patent publication US10441681B2, “Materials and methods for nerve grafting” (University of Florida Research Foundation, Inc., priority 2001, dated 2019):

System: rat sciatic nerve
Assay: Axonal regeneration into acellular interpositional nerve grafts (GAP-43 profiles)
Format: in vivo
Description: Adult (180-200 g) female SPRAGUE DAWLEY rats (HARLAN, Indianapolis, Ind.) were used as nerve donors and recipient hosts. Donor rats were anesthetized with halothane and decapitated. Sciatic nerves were exposed through a gluteal muscle-splitting incision and isolated free of underlying fascia. A 15-mm nerve segment was excised rostral to the bifurcation into common peroneal and tibial nerves. The segments were rinsed with cold sterile Ringer's solution, stabilized by pinning the ends to a thin plastic support, and transferred to a cryogenic vial. The vials were submerged in liquid nitrogen for 2 minutes and then transferred to a 37° C. water bath for 2 minutes. This freeze/thaw cycle was repeated, yielding acellular nerve grafts that were then stored in liquid nitrogen. On the day before grafting, the nerve grafts were warmed to room temperature and incubated in 100 μl phosphate buffered saline pH 7.4 (PBS) containing 2 units/ml chondroitinase ABC (SIGMA, St. Louis, Mo.) or in PBS (vehicle) only for 16 hours at 37° C. The grafts were rinsed twice with Ringer's and kept on ice prior to use. The chondroitinase ABC preparation was highly purified and stated by the manufacturer to be essentially free of protease activity.
Twelve rats received bilateral acellular nerve grafts, one chondroitinase-treated and one vehicle-treated graft. Host rats were deeply anesthetized using xylazine (15 mg/kg, i.m.) and ketamine (110 mg/kg, i.p.). The sciatic nerve was exposed and supported by a plastic insert placed between the nerve and underlying tissue. The region of nerve halfway between the sciatic notch and bifurcation was first coated with fibrin glue. Using serrated scissors, a 2.5-mm segment of host nerve was excised and replaced with a freshly trimmed 10-mm acellular nerve graft. The graft was coapted to the host nerve stumps by epineurial neurorrhaphy using one 9-0 ETHILON suture at each end. […] The muscle was closed with 4-0 sutures and the skin with wound clips. After recovery from the anesthetic, animals were returned to standard housing.
Nine rats were terminated at 8 days and four at 4 days after grafting. Animals were deeply anesthetized and decapitated. The graft and 3 mm of proximal and distal host nerve were removed, immersed in 4% paraformaldehyde in 0.1 M phosphate buffer (pH 7.4) overnight at 4° C. The specimens were equilibrated with PBS and immersed in 30% sucrose/phosphate buffer for 2 days at 4° C. […]
The main grafts were sectioned serially on the transverse plane in recorded measure to assess the extent of axonal growth by microscopy. […] GAP-43-positive axon profiles were scored using IMAGE-PRO PLUS software (MEDIA CYBERNETICS, Silver Springs, Md.). […]

chondroitinase ABC
axonal penetration vs vehicle-treated grafts (4-day grafts, 0.3 mm from the host-graft interface, 3 animals): five-fold greater
average number of axons (GAP-43-immunopositive profiles) entering grafts vs control grafts (8-day acellular syngrafts, en bloc treated, n=9): more than three-fold greater
number of axons at the distal ends of grafts vs control (8-day grafts): a similar number of axons
propensity of axons to grow within basal laminae (8-day grafts, GAP-43/laminin double label): unaltered
